Tests used:
[1] = target: T1, Phospho-KIT (Tyr719) (Homo sapiens, UniProt P10721, DEL560-578); assay: GIST T1 KIT Western Blot; format: cell-based; settings: GIST T1 cells, 4 hours, serum-free medium; read-out: pKIT suppression by western blot analysi GIST T1
T1 construct: endogenous in cells; host or cells: GIST T1
Protocol: GIST48, GIST430, and GIST882 cells were obtained from J. Fletcher (Brigham and Women's Hospital, Boston, MA). GIST T1 cells were obtained from B. Rubin (Cleveland Clinic, Cleveland, OH) and Professor Takahiro Taguchi (Kochi Medical School, Nankoku, Kochi, Japan). […] GIST430 cells were grown in Ham's F10 medium supplemented with 15% characterized fetal bovine serum (Invitrogen, Carlsbad, CA), 30 mg/L bovine pituitary extract (BD Biosciences, San Jose, CA), 0.5% Mito+ serum extender (BD Biosciences, San Jose, CA), 1 unit/mL penicillin G, 1 µg/ml streptomycin, and 0.29 mg/mL L-glutamine at 37 °C, 5%CO2, 95% humidity. GIST T1 cells were grown in DMEM medium supplemented with 10% characterized fetal bovine serum (Invitrogen, Carlsbad, CA), 1 unit/mL penicillin G, 1 µg/ml streptomycin, and 0.29 mg/mL L-glutamine at 37 °C, 5% CO2, and 95% humidity. Cells were allowed to expand until reaching 70-95% confluence at which point they were subcultured or harvested for assay use.
One hundred twenty-five thousand cells were added per well in a 24-well tissue-culture treated plate. Cells were then incubated overnight at 37°C, 5% CO2, 95% humidity. Medium was aspirated, cells were washed with PBS, and serum-free DMEM medium was added. A serial dilution of test compound was added to plates containing cells and plates were incubated for 4 hours at 37°C, 5% CO2, 95% humidity. Cells were washed with PBS, then lysed. Cell lysates were separated by SDS-PAGE and transferred to PVDF. Phospho-KIT (Tyr719) was detected using an antibody from Cell Signaling Technology (Beverly, MA), ECL Plus detection reagent (GE Healthcare, Piscataway, NJ) and a Molecular Devices Storm 840 phosphorimager in fluorescence mode. Blots were stripped and probed for total KIT using an antibody from Santa Cruz Biotech (Santa Cruz, CA). IC50 values were calculated using Prism software (Graphpad, San Diego, CA).

[2] = target: T2, V560D/Y823D (Homo sapiens, UniProt P10721, V560D/Y823D); assay: CHO K1 phospho-KIT ELISA; format: cell-based; settings: transient transfected CHO K1 cells, phospho-c-KIT (Tyr719), read-out: KIT kinase domain mutations (primary/secondary): V560D / Y823D
T2 construct: V5 (vector-encoded); expressed in transfected cells; host or cells: CHO K1
Protocol: CHO K1 cells (catalog #CCL-61) were obtained from the American Type Culture Collection, Manassas, VA. […] Cells were allowed to expand until reaching 70-95% confluency at which point they were subcultured or harvested for assay use.
Cells were then incubated overnight at 37°C, 5% CO2, 95% RH. Transfection-grade pcDNA3.2 V5 DEST expression vector containing KIT variant, Lipofectamine LTX Reagent, and PLUS reagent (Invitrogen, Carlsbad, CA) were diluted into Opti-MEM® I medium (Invitrogen, Carlsbad, CA). The tube was incubated at room temperature to allow formation of DNA-Lipofectamine LTX complexes. The DNA-lipofectamine LTX complex mix was added directly to each well and mixed gently. Eighteen hours post-transfection, medium was replaced with serum-free RPMI medium. A serial dilution of test compound was added, and plates were incubated for 4 hours at 37°C, 5% CO2, 95% RH. Cell lysates were prepared, then phospho-c-KIT (Tyr719) was measured by using a Human phospho-c-KIT ELISA kit (Cell Signaling, Beverly, MA). Data was analyzed using Prism software (Graphpad, San Diego, CA) to calculate IC50 values.

[3] = test system: GIST430 cells; assay: GIST 430 Cell Proliferation Assay; format: cell-based; settings: Homo sapiens, 120 h, 115 hours + 5 hours resazurin
Protocol: GIST48, GIST430, and GIST882 cells were obtained from J. Fletcher (Brigham and Women's Hospital, Boston, MA). GIST T1 cells were obtained from B. Rubin (Cleveland Clinic, Cleveland, OH) and Professor Takahiro Taguchi (Kochi Medical School, Nankoku, Kochi, Japan). Briefly, GIST48 and GIST 882 cells were grown in RPMI 1640 medium supplemented with 15% characterized fetal bovine serum (Invitrogen, Carlsbad, CA), 1 unit/mL penicillin G, 1 µg/ml streptomycin, and 0.29 mg/mL L-glutamine at 37 °C, 5% CO2, and 95% humidity. GIST430 cells were grown in Ham's F10 medium supplemented with 15% characterized fetal bovine serum (Invitrogen, Carlsbad, CA), 30 mg/L bovine pituitary extract (BD Biosciences, San Jose, CA), 0.5% Mito+ serum extender (BD Biosciences, San Jose, CA), 1 unit/mL penicillin G, 1 µg/ml streptomycin, and 0.29 mg/mL L-glutamine at 37 °C, 5%CO2, 95% humidity. GIST T1 cells were grown in DMEM medium supplemented with 10% characterized fetal bovine serum (Invitrogen, Carlsbad, CA), 1 unit/mL penicillin G, 1 µg/ml streptomycin, and 0.29 mg/mL L-glutamine at 37 °C, 5% CO2, and 95% humidity.
A serial dilution of test compound was dispensed into a 384-well black clear bottom plate (Corning, Corning, NY). Two thousand five-hundred cells were added per well in 50 µL complete growth medium. Plates were incubated for 115 hours at 37°C, 5% CO2, 95% humidity. At the end of the incubation period 10 µL of a 440 µM solution of resazurin (Sigma, St. Louis, MO) in PBS was added to each well and incubated for an additional 5 hours at 37°C, 5% CO2, 95% humidity. Plates were read on a Synergy2 reader (Biotek, Winooski, VT) using an excitation of 540 nm and an emission of 600 nm.

[4] = target: T3, c-KIT VVDV kinase (Homo sapiens, UniProt P10721, D816V/DEL559-560); assay: cKIT-VVDV kinase Assay; format: biochemical; settings: enzymatic assay; V559+V560 deletions and D816V mutation
T3 construct: This construct contains residues T544-V976 of cKit; GST (N); TEV cleavage site (internal); purchased deCODE Biostructures
Outline: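 Coupled spectrophotometric format: kinase activity followed as NADH oxidation, loss of absorbance at 340 nm. Serially diluted compound mixed with the reaction mixture to start; read continuously for 5 h at 30 °C.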

[5] = target: T4, VV559-560 deletion/D816V KIT (Homo sapiens, UniProt P10721, D816V/DEL559-560); assay: CHO K1 phospho-KIT Western; format: cell-based; settings: transient transfected CHO K1 cells, phospho-KIT (Tyr719), read-out: KIT kinase domain mutations (primary/secondary): VV559-560 deletion / D816V
T4 construct: expressed in transfected cells; host or cells: CHO K1
Protocol: (§1) Cells were washed with PBS, then lysed. Cell lysates were separated by SDS-PAGE and transferred to PVDF. Phospho-KIT (Tyr719) was detected using an antibody from Cell Signaling Technology (Beverly, MA), ECL Plus detection reagent (GE Healthcare, Piscataway, NJ) and a Molecular Devices Storm 840 phosphorimager in fluorescence mode. Blots were stripped and probed for total KIT using an antibody from Santa Cruz Biotech (Santa Cruz, CA). IC50 values were calculated using Prism software (Graphpad, San Diego, CA).

[6] = target: T5, D820A KIT (Homo sapiens, UniProt P10721, D820A); assay: CHO K1 phospho-KIT Western; format: cell-based; settings: transient transfected CHO K1 cells, phospho-KIT (Tyr719), read-out: KIT kinase domain mutations (primary/secondary): D820A
T5 construct: V5 (vector-encoded); expressed in transfected cells; host or cells: CHO K1
Protocol: as §1

[7] = target: T6, D816V KIT (Homo sapiens, UniProt P10721, D816V); assay: CHO K1 phospho-KIT Western; format: cell-based; settings: transient transfected CHO K1 cells, phospho-KIT (Tyr719), read-out: KIT kinase domain mutations (primary/secondary): D816V
T6 construct: V5 (vector-encoded); expressed in transfected cells; host or cells: CHO K1
Protocol: as §1

T4 sequence (P10721 with tags, fused parts or gaps DEL559-560/D816V): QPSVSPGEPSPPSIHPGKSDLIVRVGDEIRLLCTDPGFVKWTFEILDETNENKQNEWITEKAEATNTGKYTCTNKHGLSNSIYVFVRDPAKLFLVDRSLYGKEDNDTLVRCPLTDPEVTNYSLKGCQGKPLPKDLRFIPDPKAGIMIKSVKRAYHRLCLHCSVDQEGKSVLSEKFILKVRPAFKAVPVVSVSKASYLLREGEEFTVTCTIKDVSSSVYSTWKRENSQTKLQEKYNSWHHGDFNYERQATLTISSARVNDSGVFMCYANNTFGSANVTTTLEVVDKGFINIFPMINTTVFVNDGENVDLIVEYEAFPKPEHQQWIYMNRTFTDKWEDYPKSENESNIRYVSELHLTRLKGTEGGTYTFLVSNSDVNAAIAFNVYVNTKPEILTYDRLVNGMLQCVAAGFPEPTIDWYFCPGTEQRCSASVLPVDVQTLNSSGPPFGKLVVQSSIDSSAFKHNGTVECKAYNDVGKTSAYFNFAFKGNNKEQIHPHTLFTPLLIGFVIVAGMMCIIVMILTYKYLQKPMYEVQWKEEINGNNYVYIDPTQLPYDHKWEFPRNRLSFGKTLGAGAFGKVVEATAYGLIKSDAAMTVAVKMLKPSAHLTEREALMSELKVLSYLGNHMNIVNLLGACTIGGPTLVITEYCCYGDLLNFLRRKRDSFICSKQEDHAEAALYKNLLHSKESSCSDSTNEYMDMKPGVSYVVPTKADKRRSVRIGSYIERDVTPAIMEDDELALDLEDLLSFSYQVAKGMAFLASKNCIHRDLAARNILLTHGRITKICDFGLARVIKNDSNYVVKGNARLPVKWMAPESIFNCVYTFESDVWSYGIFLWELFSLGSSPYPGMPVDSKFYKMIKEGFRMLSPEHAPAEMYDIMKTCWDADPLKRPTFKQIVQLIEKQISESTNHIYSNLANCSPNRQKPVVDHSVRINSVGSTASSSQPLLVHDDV
T6 sequence (P10721 26-976 D816V): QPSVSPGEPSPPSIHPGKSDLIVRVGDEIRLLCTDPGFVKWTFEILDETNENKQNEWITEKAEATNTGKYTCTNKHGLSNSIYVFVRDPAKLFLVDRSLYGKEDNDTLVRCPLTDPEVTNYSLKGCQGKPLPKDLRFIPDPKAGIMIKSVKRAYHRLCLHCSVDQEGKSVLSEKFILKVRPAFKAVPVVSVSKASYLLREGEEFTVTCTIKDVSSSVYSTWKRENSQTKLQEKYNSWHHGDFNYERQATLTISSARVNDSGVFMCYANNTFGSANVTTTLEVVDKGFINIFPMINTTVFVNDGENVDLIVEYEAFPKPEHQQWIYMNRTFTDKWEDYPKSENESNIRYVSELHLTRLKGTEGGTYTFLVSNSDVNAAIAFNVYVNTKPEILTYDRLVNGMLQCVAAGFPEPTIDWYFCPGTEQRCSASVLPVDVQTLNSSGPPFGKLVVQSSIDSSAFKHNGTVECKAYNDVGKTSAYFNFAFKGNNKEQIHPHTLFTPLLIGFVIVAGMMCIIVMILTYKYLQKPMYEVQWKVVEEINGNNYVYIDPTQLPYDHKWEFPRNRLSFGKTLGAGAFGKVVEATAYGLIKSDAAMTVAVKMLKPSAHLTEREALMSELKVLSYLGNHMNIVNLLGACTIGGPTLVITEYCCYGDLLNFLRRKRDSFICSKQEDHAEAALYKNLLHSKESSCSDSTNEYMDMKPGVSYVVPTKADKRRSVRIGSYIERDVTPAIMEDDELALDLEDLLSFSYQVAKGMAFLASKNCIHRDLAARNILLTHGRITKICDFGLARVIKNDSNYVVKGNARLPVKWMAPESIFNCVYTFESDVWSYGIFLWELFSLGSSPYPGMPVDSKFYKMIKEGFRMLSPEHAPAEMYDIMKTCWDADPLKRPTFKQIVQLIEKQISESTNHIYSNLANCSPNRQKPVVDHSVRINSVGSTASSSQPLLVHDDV
T5 sequence (P10721 26-976 D820A): as the sequence (P10721 26-976 D816V) above, with V791D, D795A counted along it
T1 sequence (P10721 with tags, fused parts or gaps DEL560-578): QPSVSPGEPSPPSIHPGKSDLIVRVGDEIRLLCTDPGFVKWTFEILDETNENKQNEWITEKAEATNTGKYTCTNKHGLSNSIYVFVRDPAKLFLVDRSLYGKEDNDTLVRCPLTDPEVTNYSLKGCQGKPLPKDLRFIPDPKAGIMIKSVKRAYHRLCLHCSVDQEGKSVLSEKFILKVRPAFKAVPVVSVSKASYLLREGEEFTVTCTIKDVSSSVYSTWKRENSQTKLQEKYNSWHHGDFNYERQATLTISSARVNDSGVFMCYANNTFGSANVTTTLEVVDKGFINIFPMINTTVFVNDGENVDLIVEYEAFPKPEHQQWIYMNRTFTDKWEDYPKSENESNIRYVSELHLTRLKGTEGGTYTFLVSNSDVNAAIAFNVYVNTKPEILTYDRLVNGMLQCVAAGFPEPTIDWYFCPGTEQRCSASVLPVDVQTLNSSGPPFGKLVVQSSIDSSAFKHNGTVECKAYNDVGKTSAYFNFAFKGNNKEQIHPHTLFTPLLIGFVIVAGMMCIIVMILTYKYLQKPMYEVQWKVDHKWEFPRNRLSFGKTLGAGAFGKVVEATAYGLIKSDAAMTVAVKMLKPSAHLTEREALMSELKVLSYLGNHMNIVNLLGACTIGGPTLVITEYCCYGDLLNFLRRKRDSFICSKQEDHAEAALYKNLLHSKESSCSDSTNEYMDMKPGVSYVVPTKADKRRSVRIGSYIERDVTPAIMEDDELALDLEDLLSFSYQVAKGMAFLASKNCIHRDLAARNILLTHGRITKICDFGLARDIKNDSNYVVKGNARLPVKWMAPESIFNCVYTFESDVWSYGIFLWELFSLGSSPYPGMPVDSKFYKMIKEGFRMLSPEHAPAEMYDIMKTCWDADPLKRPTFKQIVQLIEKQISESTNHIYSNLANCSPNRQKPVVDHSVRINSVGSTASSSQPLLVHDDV
T2 sequence (P10721 26-976 V560D/Y823D): as the sequence (P10721 26-976 D816V) above, with V535D, V791D, Y798D counted along it
T3 sequence (P10721 with tags, fused parts or gaps DEL559-560/D816V): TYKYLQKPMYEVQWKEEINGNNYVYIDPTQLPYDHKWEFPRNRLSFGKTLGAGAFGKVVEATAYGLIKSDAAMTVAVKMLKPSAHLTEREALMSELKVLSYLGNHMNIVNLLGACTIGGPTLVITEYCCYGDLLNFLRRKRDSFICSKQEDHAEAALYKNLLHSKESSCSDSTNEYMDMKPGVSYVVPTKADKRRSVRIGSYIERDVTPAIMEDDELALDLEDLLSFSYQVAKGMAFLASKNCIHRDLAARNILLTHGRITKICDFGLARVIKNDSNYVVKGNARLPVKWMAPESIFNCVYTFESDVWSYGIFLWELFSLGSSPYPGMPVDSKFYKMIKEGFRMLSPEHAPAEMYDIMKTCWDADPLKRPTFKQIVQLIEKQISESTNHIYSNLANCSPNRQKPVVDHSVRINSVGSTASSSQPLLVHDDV

IC50 [1] [nM]	IC50 [2] [nM]	IC50 [4] [nM]	IC50 [5] [nM]	IC50 [6] [nM]	IC50 [7] [nM]	SMILES	IC50 [3] [nM]
< 10	< 10	10 to 100	100 to 1000	10 to 100	> 1000	CCn1c(=O)c(-c2cc(NC(=O)Nc3ccccc3)c(F)cc2C)cc2cnc(NC)cc21 [Example 23, 1-(5-(1-ethyl-7-(methylamino)-2-oxo-1,2-dihydro-1,6-naphthyridin-3-yl)-2-fluoro-4-methylphenyl)-3-phenylurea]	10 to 100
< 10	< 10	10 to 100	10 to 100	10 to 100	< 10	CCn1c(=O)c(-c2cc(NC(=O)Nc3csc4ccccc34)c(F)cc2C)cc2cnc(NC)cc21 [Example 59, 1-(benzo[b]thiophen-3-yl)-3-(5-(1-ethyl-7-(methylamino)-2-oxo-1,2-dihydro-1,6-naphthyridin-3-yl)-2-fluoro-4-methylphenyl)urea]	–

From patent publication EP3722296B1, “DIHYDRONAPHTHYRIDINES AND RELATED COMPOUNDS USEFUL AS KINASE INHIBITORS FOR THE TREATMENT OF PROLIFERATIVE DISEASES” (Deciphera Pharmaceuticals, LLC, priority 2012, dated 2013)
